Measurements: PMC11823630, “In vitro potentiation of tetracyclines in Pseudomonas aeruginosa by RW01, a new cyclic peptide” (Antimicrobial Agents and Chemotherapy, 2024)
Where two headings read alike, the source gives them in different places.

Assays:
P. aeruginosa 125A = assay: MIC, CLSI broth microdilution in BD Phoenix AST Broth; type: cell-based, Pseudomonas aeruginosa; settings: strain 125A
P. aeruginosa 125B = assay: as above; type: cell-based, Pseudomonas aeruginosa; settings: strain 125B
P. aeruginosa 41A = assay: as above; type: cell-based, Pseudomonas aeruginosa; settings: strain 41A
P. aeruginosa 41B = assay: as above; type: cell-based, Pseudomonas aeruginosa; settings: strain 41B
P. aeruginosa PAO1 [1] = assay: as above; type: cell-based, Pseudomonas aeruginosa; settings: for MIC: agent alone, 37°C, 18–22 h, three biological replicates
P. aeruginosa PAOUW = assay: as above; type: cell-based, Pseudomonas aeruginosa; settings: strain PAOUW; for MIC: agent alone, 37°C, 18–22 h, three biological replicates
P. aeruginosa PAOUW∆oprF = assay: as above; type: cell-based, Pseudomonas aeruginosa
P. aeruginosa PAOΔmexR = assay: as above; type: cell-based, Pseudomonas aeruginosa
P. aeruginosa PAOΔmexZ = assay: as above; type: cell-based, Pseudomonas aeruginosa; settings: strain PAOΔmexZ
P. aeruginosa PAOΔoprM = assay: as above; type: cell-based, Pseudomonas aeruginosa
P. aeruginosa PAO1 [2] = assay: MIC in the presence of 25% mouse serum; settings: Pseudomonas aeruginosa
[3] = Pseudomonas aeruginosa, agent alone, 37°C, 18–22 h, three biological replicates
[4] = MIC of the antibiotic with fixed 100 mg/L RW01
[5] = antibiotic MIC alone vs with RW01 100 mg/L
[6] = antibiotic with RW01 at 100 mg/L
[7] = strain PAO1, antibiotic with RW01 at 100 mg/L
[8] = strain PAOUWΔoprF (printed PAOΔoprF), antibiotic with RW01 at 100 mg/L
[9] = strain PAOΔmexR, antibiotic with RW01 at 100 mg/L
[10] = strain PAOΔoprM, antibiotic with RW01 at 100 mg/L

CN(C)c1ccc(O)c2c1C[C@H]1C[C@H]3[C@H](N(C)C)C(O)=C(C(N)=O)C(=O)[C@@]3(O)C(O)=C1C2=O [Minocycline, minocycline]
MIC (P. aeruginosa 125A; [3]): 8 mg/L | Antibiotic MIC + RW01 100 mg/L (P. aeruginosa 125A; [4]): 1 mg/L | Potentiation (fold) (P. aeruginosa 125A; [5]): 8 fold | FICI (P. aeruginosa 125A; [6]): 0.320 | FICI-determined effect (P. aeruginosa 125A; [6]): Synergy (synergistic effect if FICI is ≤0.5) | MIC (P. aeruginosa 125B; [3]): 8 mg/L | Antibiotic MIC + RW01 100 mg/L (P. aeruginosa 125B; [4]): 1 mg/L | Potentiation (fold) (P. aeruginosa 125B; [5]): 8 fold | FICI (P. aeruginosa 125B; [6]): 0.320 | FICI-determined effect (P. aeruginosa 125B; [6]): Synergy (synergistic effect if FICI is ≤0.5) | MIC (P. aeruginosa 41A; [3]): 8 mg/L | Antibiotic MIC + RW01 100 mg/L (P. aeruginosa 41A; [4]): 2 mg/L | Potentiation (fold) (P. aeruginosa 41A; [5]): 4 fold | FICI (P. aeruginosa 41A; [6]): 0.348 | FICI-determined effect (P. aeruginosa 41A; [6]): Synergy (synergistic effect if FICI is ≤0.5) | MIC (P. aeruginosa 41B; [3]): 16 mg/L | Potentiation (fold) (P. aeruginosa 41B; [5]): 8 fold | FICI (P. aeruginosa 41B; [6]): 0.223 | FICI-determined effect (P. aeruginosa 41B; [6]): Synergy (synergistic effect if FICI is ≤0.5) | MIC (P. aeruginosa PAO1 [1]; Pseudomonas aeruginosa, PAO1, strain PAO1, read-out: MIC): 8 to 16 mg/L | Antibiotic MIC + RW01 100 mg/L (P. aeruginosa PAO1 [1]; strain PAO1, MIC of the antibiotic with fixed 100 mg/L RW01): 2 mg/L | MIC (P. aeruginosa PAO1 [1]; strain PAO1): 8 mg/L | Potentiation (fold) (P. aeruginosa PAO1 [1]; strain PAO1, antibiotic MIC alone vs with RW01 100 mg/L): 4 fold | FICI (P. aeruginosa PAO1 [1]; [7]): 0.445 | FICI-determined effect (P. aeruginosa PAO1 [1]; [7]): Synergy (synergistic effect if FICI is ≤0.5) | MIC (P. aeruginosa PAOUW; Pseudomonas aeruginosa, read-out: MIC): 16 mg/L | MIC (P. aeruginosa PAOUW): 8 mg/L | Potentiation (fold) (P. aeruginosa PAOUW; [5]): 8 fold | FICI (P. aeruginosa PAOUW; [6]): 0.223 | FICI-determined effect (P. aeruginosa PAOUW; [6]): Synergy (synergistic effect if FICI is ≤0.5) | MIC (P. aeruginosa PAOUW∆oprF; Pseudomonas aeruginosa, strain PAOUWΔoprF, agent alone, 37°C, 18–22 h, three biological replicates): 8 mg/L | Potentiation (fold) (P. aeruginosa PAOUW∆oprF; strain PAOUWΔoprF (printed PAOΔoprF), antibiotic MIC alone vs with RW01 100 mg/L): 8 fold | FICI (P. aeruginosa PAOUW∆oprF; [8]): 0.223 | FICI-determined effect (P. aeruginosa PAOUW∆oprF; [8]): Synergy (synergistic effect if FICI is ≤0.5) | Antibiotic MIC + RW01 100 mg/L (P. aeruginosa PAOUW∆oprF; strain PAOUWΔoprF, MIC of the antibiotic with fixed 100 mg/L RW01): 1 mg/L | MIC (P. aeruginosa PAOΔmexR; Pseudomonas aeruginosa): 8 mg/L | Antibiotic MIC + RW01 100 mg/L (P. aeruginosa PAOΔmexR; strain PAOΔmexR, MIC of the antibiotic with fixed 100 mg/L RW01): 1 mg/L | Potentiation (fold) (P. aeruginosa PAOΔmexR; strain PAOΔmexR, antibiotic MIC alone vs with RW01 100 mg/L): 8 fold | FICI (P. aeruginosa PAOΔmexR; [9]): 0.223 | FICI-determined effect (P. aeruginosa PAOΔmexR; [9]): Synergy (synergistic effect if FICI is ≤0.5) | MIC (P. aeruginosa PAOΔmexZ; [3]): 8 mg/L | Antibiotic MIC + RW01 100 mg/L (P. aeruginosa PAOΔmexZ; [4]): 1 mg/L | FICI (P. aeruginosa PAOΔmexZ; [6]): 0.160 | FICI-determined effect (P. aeruginosa PAOΔmexZ; [6]): Synergy (synergistic effect if FICI is ≤0.5) | MIC (P. aeruginosa PAOΔoprM; Pseudomonas aeruginosa): 2 mg/L | Antibiotic MIC + RW01 100 mg/L (P. aeruginosa PAOΔoprM; strain PAOΔoprM, MIC of the antibiotic with fixed 100 mg/L RW01): 0.5 mg/L | Potentiation (fold) (P. aeruginosa PAOΔoprM; strain PAOΔoprM, antibiotic MIC alone vs with RW01 100 mg/L): 4 fold | FICI (P. aeruginosa PAOΔoprM; [10]): 0.348 | FICI-determined effect (P. aeruginosa PAOΔoprM; [10]): Synergy (synergistic effect if FICI is ≤0.5) | MIC (P. aeruginosa PAO1 [2]; PAO1, read-out: MIC + RW01 in the presence of serum): 4 mg/L | MIC (P. aeruginosa PAO1 [2]; PAO1, read-out: MIC in the presence of serum): 32 mg/L
